Measured values taken from patent US20200085776A1, “Methods of Reducing C-Reactive Protein and/or Treating Cardiovascular Disease” (CARDAX, INC., priority 2018, published 2020).

System: C-reactive protein (CRP)
Test: CRP (hs-CRP) in blood, CHASE clinical study
Format: in vivo, human
Conditions: Group Z 48 mg BID
Text: This is a two-part study comprising Part I and Part II. Following screening, Part I consists of a randomized, double-blind, placebo controlled dosing period of up to 12 weeks. The study shall be conducted at one or more study sites in Hawaii. Approximately 360 subjects qualified after completion of screening procedures shall be randomized in a 1:1:1 ratio to one of three treatment groups, per Table 1.
The Part I 12-week double-blind dosing period commences with V2, including randomization and first dose of study product, and continues with study visits at Week 1-2 (V3), Week 4 (V4), Week 8 (V5), and Week 12 (V6). V6 procedures will conclude Part I.
Blood shall be obtained at each visit for CRP. The screening specimen shall be processed at the local lab and reported to the study staff for eligibility determination; CRP samples at V7 and V8 may also be processed locally and reported directly to study staff. Samples for CRP from V2 through V6 may be batched, processed, and reported as specified in the Laboratory Manual.
At each these visits, blood was obtained for measurement of CRP, among other parameters. Table 7A provides a summary of the CRP measurements (mg/L) at each visit and Table 7B provides a summary of the differences of CRP levels between V2 and V6.

[1] = V1 screening, subjects with baseline level greater than 2.0
[2] = V2 baseline pre-dose, all subjects
[3] = V2 baseline pre-dose, subjects not taking a hypertension agent
[4] = V2 baseline pre-dose, subjects not taking any cardiac therapeutic agent
[5] = V2 baseline pre-dose, subjects not taking statins
[6] = V2 baseline pre-dose, subjects taking an anti-diabetic agent
[7] = V2 baseline pre-dose, subjects with CAD
[8] = V2 baseline pre-dose, subjects with DM2, hypertension and hyperlipidemia but not CAD
[9] = V2 baseline pre-dose, subjects with Diabetes Mellitus Type II
[10] = V2 baseline pre-dose, subjects with baseline level greater than 2.0
[11] = V2 baseline pre-dose, subjects with hyperlipidemia
[12] = V3 Week 1-2, subjects with baseline level greater than 2.0
[13] = V4 Week 4, subjects with baseline level greater than 2.0
[14] = V5 Week 8, subjects with baseline level greater than 2.0
[15] = V6 Week 12, subjects not taking a hypertension agent
[16] = V6 Week 12, subjects not taking any cardiac therapeutic agent
[17] = V6 Week 12, subjects not taking statins
[18] = V6 Week 12, subjects taking an anti-diabetic agent

Compound: CC1=C(/C=C/C(C)=C/C=C/C(C)=C/C=C/C=C(C)/C=C/C=C(C)/C=C/C2=C(C)C(=O)C(O)CC2(C)C)C(C)(C)CC(O)C1=O (stereo not drawn) [Astaxanthin, astaxanthin]
- CRP Max (V1 screening, all subjects): 14.17 mg/L
- CRP Mean (SD) (V1 screening, all subjects): 5.12 (3.39) mg/L
- CRP Median (V1 screening, all subjects): 4.20 mg/L
- CRP Min (V1 screening, all subjects): 2.03 mg/L
- CRP Max [1]: 14.17 mg/L
- CRP Mean (SD) [1]: 5.65 (3.56) mg/L
- CRP Median [1]: 4.94 mg/L
- CRP Min [1]: 2.03 mg/L
- CRP Max [2]: 8.51 mg/L
- CRP Mean (SD) [2]: 4.28 (2.32) mg/L
- CRP Median [2]: 4.68 mg/L
- CRP Min [2]: 1.27 mg/L
- CRP Max [3]: 6.30 mg/L
- CRP Mean (SD) [3]: 4.52 (1.86) mg/L
- CRP Median [3]: 4.68 mg/L
- CRP Min [3]: 2.59 mg/L
- CRP Max [4]: 8.04 mg/L
- CRP Mean (SD) [4]: 4.55 (2.02) mg/L
- CRP Median [4]: 4.68 mg/L
- CRP Min [4]: 1.81 mg/L
- CRP Max [5]: 8.51 mg/L
- CRP Mean (SD) [5]: 4.97 (2.51) mg/L
- CRP Median [5]: 4.83 mg/L
- CRP Min [5]: 1.83 mg/L
- CRP Max [6]: 8.51 mg/L
- CRP Mean (SD) [6]: 4.48 (2.24) mg/L
- CRP Median [6]: 4.98 mg/L
- CRP Min [6]: 1.27 mg/L
- CRP Max [7]: 6.68 mg/L
- CRP Mean (SD) [7]: 3.49 (2.23) mg/L
- CRP Median [7]: 3.12 mg/L
- CRP Min [7]: 1.27 mg/L
- CRP Max [8]: 8.51 mg/L
- CRP Mean (SD) [8]: 5.26 (2.32) mg/L
- CRP Median [8]: 5.04 mg/L
- CRP Min [8]: 2.59 mg/L
- CRP Max [9]: 8.51 mg/L
- CRP Mean (SD) [9]: 4.78 (2.37) mg/L
- CRP Median [9]: 5.01 mg/L
- CRP Min [9]: 1.27 mg/L
- CRP Max [10]: 8.51 mg/L
- CRP Mean (SD) [10]: 5.25 (1.89) mg/L
- CRP Median [10]: 5.17 mg/L
- CRP Min [10]: 2.29 mg/L
- CRP Max [11]: 8.51 mg/L
- CRP Mean (SD) [11]: 3.78 (2.28) mg/L
- CRP Median [11]: 3.12 mg/L
- CRP Min [11]: 1.27 mg/L
- CRP Max (V3 Week 1-2, all subjects): 13.08 mg/L
- CRP Mean (SD) (V3 Week 1-2, all subjects): 4.86 (3.09) mg/L
- CRP Median (V3 Week 1-2, all subjects): 4.52 mg/L
- CRP Min (V3 Week 1-2, all subjects): 1.77 mg/L
- CRP Max [12]: 13.08 mg/L
- CRP Mean (SD) [12]: 5.62 (3.21) mg/L
- CRP Median [12]: 4.88 mg/L
- CRP Min [12]: 2.27 mg/L
- CRP Max (V4 Week 4, all subjects): 7.81 mg/L
- CRP Mean (SD) (V4 Week 4, all subjects): 3.42 (1.84) mg/L
- CRP Median (V4 Week 4, all subjects): 3.04 mg/L
- CRP Min (V4 Week 4, all subjects): 0.90 mg/L
- CRP Max [13]: 7.81 mg/L
- CRP Mean (SD) [13]: 3.94 (1.86) mg/L
- CRP Median [13]: 3.27 mg/L
- CRP Min [13]: 0.90 mg/L
- CRP Max (V5 Week 8, all subjects): 9.20 mg/L
- CRP Mean (SD) (V5 Week 8, all subjects): 3.49 (2.06) mg/L
- CRP Median (V5 Week 8, all subjects): 3.04 mg/L
- CRP Min (V5 Week 8, all subjects): 0.91 mg/L
- CRP Max [14]: 9.20 mg/L
- CRP Mean (SD) [14]: 4.09 (2.07) mg/L
- CRP Median [14]: 4.17 mg/L
- CRP Min [14]: 1.15 mg/L
- CRP Max (V6 Week 12, all subjects): 8.84 mg/L
- CRP Mean (SD) (V6 Week 12, all subjects): 3.41 (2.24) mg/L
- CRP Median (V6 Week 12, all subjects): 2.53 mg/L
- CRP Min (V6 Week 12, all subjects): 0.61 mg/L
- CRP Max [15]: 4.30 mg/L
- CRP Mean (SD) [15]: 2.94 (1.20) mg/L
- CRP Median [15]: 2.48 mg/L
- CRP Min [15]: 2.04 mg/L
- CRP Max [16]: 8.84 mg/L
- CRP Mean (SD) [16]: 3.13 (2.14) mg/L
- CRP Median [16]: 2.53 mg/L
- CRP Min [16]: 0.61 mg/L
- CRP Max [17]: 8.84 mg/L
- CRP Mean (SD) [17]: 4.16 (2.57) mg/L
- CRP Median [17]: 3.24 mg/L
- CRP Min [17]: 1.88 mg/L
- CRP Max [18]: 7.87 mg/L
- CRP Mean (SD) [18]: 3.31 (2.28) mg/L
- CRP Median [18]: 2.53 mg/L
- CRP Min [18]: 0.61 mg/L
- CRP Max (V6 Week 12, subjects with CAD): 2.31 mg/L
- CRP Mean (SD) (V6 Week 12, subjects with CAD): 1.57 (0.72) mg/L
- CRP Median (V6 Week 12, subjects with CAD): 1.88 mg/L
- CRP Min (V6 Week 12, subjects with CAD): 0.61 mg/L
